Experiments:
Format in all cases: in vivo
Kochia (Kochia scoparia) [1] = test: Test A preemergence; settings: Bassia scoparia, pre-emergence, 240 h
Procedure, shortened: (§1)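 Visual injury scores from 0, no effect, to 100, complete control, were assigned versus untreated controls roughly 10 d after treatment in the greenhouse. Test chemicals, formulated with surfactant in a non-phytotoxic solvent, were applied to planted seeds as a preemergence soil spray or postemergence to one- to two-leaf plants 2 to 10 cm tall, in loam–sand soil.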

[2] = tested on: barnyardgrass (Echinochloa crus-galli); test: Test A preemergence; settings: Echinochloa crus-galli, pre-emergence, 240 h
Procedure, shortened: as §1

[3] = tested on: giant foxtail (Setaria faberii); test: Test A preemergence; settings: Setaria faberi, pre-emergence, 240 h
Procedure, shortened: as §1

[4] = tested on: pigweed (Amaranthus retroflexus); test: Test A preemergence; settings: Amaranthus retroflexus, pre-emergence, 240 h
[5] = tested on: ragweed (common ragweed, Ambrosia elatior); test: Test A preemergence; settings: Ambrosia artemisiifolia, pre-emergence, 240 h
Procedure, shortened: as §1

[6] = tested on: ryegrass, Italian (Italian ryegrass, Lolium multiflorum); test: Test A preemergence; settings: Lolium multiflorum, pre-emergence, 240 h, Preemergence, 125 g ai/ha; 0 to 100 scale (0 no effect, 100 complete control); read-out: Plant response rating, Ryegrass, Italian
Procedure, shortened: as §1

[7] = tested on: Galium (catchweed bedstraw, Galium aparine); test: Test A postemergence; settings: Galium, post-emergence, 240 h, Postemergence
Procedure, shortened: as §1

Kochia (Kochia scoparia) [8] = test: Test A postemergence; settings: Bassia scoparia, post-emergence, 240 h, Postemergence
Procedure, shortened: as §1

[9] = tested on: barnyardgrass (Echinochloa crus-galli); test: Test A postemergence; settings: Echinochloa crus-galli, post-emergence, 240 h, Postemergence
Procedure, shortened: as §1

corn (Zea mays) = test: Test A postemergence; settings: Zea mays, post-emergence, 240 h, Postemergence
Procedure, shortened: as §1

[10] = tested on: giant foxtail (Setaria faberii); test: Test A postemergence; settings: Setaria faberi, post-emergence, 240 h, Postemergence
Procedure, shortened: as §1

[11] = tested on: pigweed (Amaranthus retroflexus); test: Test A postemergence; settings: Amaranthus retroflexus, post-emergence, 240 h, Postemergence
Procedure, shortened: as §1

[12] = tested on: ragweed (common ragweed, Ambrosia elatior); test: Test A postemergence; settings: Ambrosia artemisiifolia, post-emergence, 240 h, Postemergence
Procedure, shortened: as §1

[13] = tested on: ryegrass, Italian (Italian ryegrass, Lolium multiflorum); test: Test A postemergence; settings: Lolium multiflorum, post-emergence, 240 h, Postemergence
Procedure, shortened: as §1

[14] = tested on: wheat (Triticum aestivum); test: Test A postemergence; settings: Triticum aestivum, post-emergence, 240 h, Postemergence
Procedure, shortened: as §1

In the case of CN1C[C@H](c2cccc(C(C)(F)F)c2)[C@@H](C(=O)Nc2ccccc2F)C1=O [Compound 1317], the pest or weed control at 500 g/ha (Kochia (Kochia scoparia) [1]; 500 g ai/ha, preemergence, 0 to 100 scale where 0 is no effect and 100 is complete control, read-out: Kochia plant response rating) is reported as 80%, the pest or weed control at 125 g/ha (Kochia (Kochia scoparia) [1]; Preemergence, 125 g ai/ha, 0 to 100 scale (0 no effect, 100 complete control), read-out: Plant response rating, Kochia) is reported as 60% and the pest or weed control at 500 g/ha ([2]; 500 g ai/ha, preemergence, 0 to 100 scale where 0 is no effect and 100 is complete control, read-out: Barnyardgrass plant response rating) is reported as 90%. For the same molecule, the pest or weed control at 125 g/ha ([2]; Preemergence, 125 g ai/ha, 0 to 100 scale (0 no effect, 100 complete control), read-out: Plant response rating, Barnyardgrass) was 90%, the pest or weed control at 500 g/ha ([3]; 500 g ai/ha, preemergence, 0 to 100 scale where 0 is no effect and 100 is complete control, read-out: Foxtail, Giant plant response rating) was 100% and the pest or weed control at 125 g/ha ([3]; Preemergence, 125 g ai/ha, 0 to 100 scale (0 no effect, 100 complete control), read-out: Plant response rating, Foxtail, Giant) was 90%. It also gave a pest or weed control at 500 g/ha ([4]; 500 g ai/ha, preemergence, 0 to 100 scale where 0 is no effect and 100 is complete control, read-out: Pigweed plant response rating) of 60%, a pest or weed control at 125 g/ha ([4]; Preemergence, 125 g ai/ha, 0 to 100 scale (0 no effect, 100 complete control), read-out: Plant response rating, Pigweed) of 0% and a pest or weed control at 500 g/ha ([5]; 500 g ai/ha, preemergence, 0 to 100 scale where 0 is no effect and 100 is complete control, read-out: Ragweed plant response rating) of 40%. For the same molecule, the pest or weed control at 125 g/ha ([5]; Preemergence, 125 g ai/ha, 0 to 100 scale (0 no effect, 100 complete control), read-out: Plant response rating, Ragweed) was 0%, the pest or weed control at 125 g/ha [6] was 20% and the pest or weed control at 125 g/ha ([7]; 125 g ai/ha, visual rating about 10 d after treatment, read-out: Galium plant response rating (0 to 100 scale)) was 60%. It also gave a pest or weed control at 500 g/ha ([7]; 500 g ai/ha, visual injury, 0 to 100 scale (0 no effect, 100 complete control), approx. 10 d, read-out: Plant response rating, Galium) of 60%, a pest or weed control at 125 g/ha (Kochia (Kochia scoparia) [8]; 125 g ai/ha, visual rating about 10 d after treatment, read-out: Kochia plant response rating (0 to 100 scale)) of 20% and a pest or weed control at 500 g/ha (Kochia (Kochia scoparia) [8]; 500 g ai/ha, visual injury, 0 to 100 scale (0 no effect, 100 complete control), approx. 10 d, read-out: Plant response rating, Kochia) of 30%. The pest or weed control at 125 g/ha ([9]; 125 g ai/ha, visual rating about 10 d after treatment, read-out: Barnyardgrass plant response rating (0 to 100 scale, 0 no effect, 100 complete control)) was 90%, the pest or weed control at 500 g/ha ([9]; 500 g ai/ha, visual injury, 0 to 100 scale (0 no effect, 100 complete control), approx. 10 d, read-out: Plant response rating, Barnyardgrass) was 90% and the plant injury at 125 g/ha (corn (Zea mays); 125 g ai/ha, visual rating about 10 d after treatment, read-out: Corn plant response rating (0 to 100 scale)) was 80%. For the same molecule, the Corn plant response rating (crop injury, 0 = no effect, 100 = complete kill) at 500 g/ha (corn (Zea mays); 500 g ai/ha, visual injury, 0 to 100 scale (0 no effect, 100 complete control), approx. 10 d) was 80%, the pest or weed control at 125 g/ha ([10]; 125 g ai/ha, visual rating about 10 d after treatment, read-out: Foxtail, Giant plant response rating (0 to 100 scale)) was 90% and the pest or weed control at 500 g/ha ([10]; 500 g ai/ha, visual injury, 0 to 100 scale (0 no effect, 100 complete control), approx. 10 d, read-out: Plant response rating, Foxtail, Giant) was 90%. It also gave a pest or weed control at 125 g/ha ([11]; 125 g ai/ha, visual rating about 10 d after treatment, read-out: Pigweed plant response rating (0 to 100 scale)) of 30%, a pest or weed control at 500 g/ha ([11]; 500 g ai/ha, visual injury, 0 to 100 scale (0 no effect, 100 complete control), approx. 10 d, read-out: Plant response rating, Pigweed) of 20% and a pest or weed control at 125 g/ha ([12]; 125 g ai/ha, visual rating about 10 d after treatment, read-out: Ragweed plant response rating (0 to 100 scale)) of 0%. It also gave a pest or weed control at 500 g/ha ([12]; 500 g ai/ha, visual injury, 0 to 100 scale (0 no effect, 100 complete control), approx. 10 d, read-out: Plant response rating, Ragweed) of 20%, a pest or weed control at 125 g/ha ([13]; 125 g ai/ha, visual rating about 10 d after treatment, read-out: Ryegrass, Italian plant response rating (0 to 100 scale)) of 40% and a pest or weed control at 500 g/ha ([13]; 500 g ai/ha, visual injury, 0 to 100 scale (0 no effect, 100 complete control), approx. 10 d, read-out: Plant response rating, Ryegrass, Italian) of 80%. For the same molecule, the plant injury at 125 g/ha ([14]; 125 g ai/ha, visual rating about 10 d after treatment, read-out: Wheat plant response rating (0 to 100 scale)) was 60% and the plant injury at 500 g/ha ([14]; 500 g ai/ha, visual injury, 0 to 100 scale (0 no effect, 100 complete control), approx. 10 d, read-out: Plant response rating, Wheat) was 60%.

Source: patent publication US12077503B2, “Substituted cyclic amides and their use as herbicides” (FMC CORPORATION, priority 2015, dated 2024)
